Data as given in ChEMBL document CHEMBL3112450, “Synthesis and in vitro antitumor evaluation of primary amine substituted quinazoline linked benzimidazole” (Bioorg Med Chem Lett, 2014).

Assays:
Assay type in all cases: functional
CCRF-CEM = assay: Cytotoxicity against human CCRF-CEM cells assessed as cell growth at 10^-5 M after 48 hrs by SRB assay; details: read-out: Activity
NCI-H23 = assay: Cytotoxicity against human NCI-H23 cells assessed as cell growth at 10^-5 M after 48 hrs by SRB assay; details: NCI-H23, 48 h, read-out: Activity
HOP-62 = assay: Cytotoxicity against human HOP62 cells assessed as cell growth at 10^-5 M after 48 hrs by SRB assay; details: HOP-62, 48 h, read-out: Activity
HCC 2998 = assay: Cytotoxicity against human HCC2998 cells assessed as cell growth at 10^-5 M after 48 hrs by SRB assay; details: HCC 2998, 48 h, read-out: Activity
BT-549 = assay: Cytotoxicity against human BT549 cells assessed as cell growth at 10^-5 M after 48 hrs by SRB assay; details: BT-549, 48 h, read-out: Activity
DU-145 = assay: Cytotoxicity against human DU145 cells assessed as cell growth at 10^-5 M after 48 hrs by SRB assay; details: DU-145, 48 h, read-out: Activity
K562 = assay: Cytotoxicity against human K562 cells assessed as cell growth at 10^-5 M after 48 hrs by SRB assay; details: K562, 48 h, read-out: Activity
HCT-15 = assay: Cytotoxicity against human HCT15 cells assessed as cell growth at 10^-5 M after 48 hrs by SRB assay; details: HCT-15, 48 h, read-out: Activity
SK-MEL-2 = assay: Cytotoxicity against human SK-MEL-2 cells assessed as cell growth at 10^-5 M after 48 hrs by SRB assay; details: SK-MEL-2, 48 h, read-out: Activity
M14 = assay: Cytotoxicity against human M14 cells assessed as cell growth at 10^-5 M after 48 hrs by SRB assay; details: M14, 48 h, read-out: Activity
SK-MEL-5 = assay: Cytotoxicity against human SK-MEL-5 cells assessed as cell growth at 10^-5 M after 48 hrs by SRB assay; details: SK-MEL-5, 48 h, read-out: Activity
MDA-MB-468 = assay: Cytotoxicity against human MDA-MB-468 cells assessed as cell growth at 10^-5 M after 48 hrs by SRB assay; details: MDA-MB-468, 48 h, read-out: Activity
HL-60(TB) = assay: Cytotoxicity against human HL-60(TB) cells assessed as cell growth at 10^-5 M after 48 hrs by SRB assay; details: HL-60, 48 h, read-out: Activity
CAKI-1 = assay: Cytotoxicity against human Caki1 cells assessed as cell growth at 10^-5 M after 48 hrs by SRB assay; details: CAKI-1, 48 h, read-out: Activity
NCI-H522 = assay: Cytotoxicity against human NCI-H522 cells assessed as cell growth at 10^-5 M after 48 hrs by SRB assay; details: NCI-H522, 48 h, read-out: Activity
NCI-H460 = assay: Cytotoxicity against human NCI-H460 cells assessed as cell growth at 10^-5 M after 48 hrs by SRB assay; details: NCI-H460, 48 h, read-out: Activity
MOLT-4 = assay: Cytotoxicity against human MOLT4 cells assessed as cell growth at 10^-5 M after 48 hrs by SRB assay; details: MOLT-4, 48 h, read-out: Activity
UACC-62 = assay: Cytotoxicity against human UACC62 cells assessed as cell growth at 10^-5 M after 48 hrs by SRB assay; details: UACC-62, 48 h, read-out: Activity
U-251 = assay: Cytotoxicity against human U251 cells assessed as cell growth at 10^-5 M after 48 hrs by SRB assay; details: U-251, 48 h, read-out: Activity
TK-10 = assay: Cytotoxicity against human TK10 cells assessed as cell growth at 10^-5 M after 48 hrs by SRB assay; details: TK-10, 48 h, read-out: Activity
SK-MEL-28 = assay: Cytotoxicity against human SK-MEL-28 cells assessed as cell growth at 10^-5 M after 48 hrs by SRB assay; details: SK-MEL-28, 48 h, read-out: Activity
NCI-H226 = assay: Cytotoxicity against human NCI-H226 cells assessed as cell growth at 10^-5 M after 48 hrs by SRB assay; details: NCI-H226, 48 h, read-out: Activity
SW-620 = assay: Cytotoxicity against human SW620 cells assessed as cell growth at 10^-5 M after 48 hrs by SRB assay; details: SW-620, 48 h, read-out: Activity
786-0 = assay: Cytotoxicity against human 786-0 cells assessed as cell growth at 10^-5 M after 48 hrs by SRB assay; details: 786-0, 48 h, read-out: Activity
SK-OV-3 = assay: Cytotoxicity against human SKOV3 cells assessed as cell growth at 10^-5 M after 48 hrs by SRB assay; details: SK-OV-3, 48 h, read-out: Activity
NCI-H322M = assay: Cytotoxicity against human NCI-H322M cells assessed as cell growth at 10^-5 M after 48 hrs by SRB assay; details: read-out: Activity
ACHN = assay: Cytotoxicity against human ACHN cells assessed as cell growth at 10^-5 M after 48 hrs by SRB assay; details: read-out: Activity
A549 = assay: Cytotoxicity against human A549 cells assessed as cell growth at 10^-5 M after 48 hrs by SRB assay; details: A549, 48 h, read-out: Activity
[1] = Cytotoxicity against human OVCAR5 cells assessed as cell growth at 10^-5 M after 48 hrs by SRB assay; details: OVCAR-5, 48 h, read-out: Activity
IGROV-1 = assay: Cytotoxicity against human IGROV1 cells assessed as cell growth at 10^-5 M after 48 hrs by SRB assay; details: IGROV-1, 48 h, read-out: Activity
OVCAR-8 = assay: Cytotoxicity against human OVCAR8 cells assessed as cell growth at 10^-5 M after 48 hrs by SRB assay; details: OVCAR-8, 48 h, read-out: Activity
HT-29 = assay: Cytotoxicity against human HT-29 cells assessed as cell growth at 10^-5 M after 48 hrs by SRB assay; details: HT-29, 48 h, read-out: Activity
SNB-19 = assay: Cytotoxicity against human SNB19 cells assessed as cell growth at 10^-5 M after 48 hrs by SRB assay; details: SNB-19, 48 h, read-out: Activity
SR = assay: Cytotoxicity against human SR cells assessed as cell growth at 10^-5 M after 48 hrs by SRB assay; details: read-out: Activity
Malme-3M = assay: Cytotoxicity against human MALME-3M cells assessed as cell growth at 10^-5 M after 48 hrs by SRB assay; details: read-out: Activity
[2] = Cytotoxicity against human UO31 cells assessed as cell growth at 10^-5 M after 48 hrs by SRB assay; details: UO-31, 48 h, read-out: Activity
RPMI-8226 = assay: Cytotoxicity against human RPMI8226 cells assessed as cell growth at 10^-5 M after 48 hrs by SRB assay; details: RPMI-8226, 48 h, read-out: Activity

Row | SMILES | growth at 10 µM (CCRF-CEM) | growth at 10 µM (NCI-H23) | growth at 10 µM (HOP-62) | growth at 10 µM (HCC 2998) | growth at 10 µM (BT-549) | growth at 10 µM (DU-145) | growth at 10 µM (K562) | growth at 10 µM (HCT-15) | growth at 10 µM (SK-MEL-2) | growth at 10 µM (M14) | growth at 10 µM (SK-MEL-5) | growth at 10 µM (MDA-MB-468) | growth at 10 µM (HL-60(TB)) | growth at 10 µM (CAKI-1) | growth at 10 µM (NCI-H522) | growth at 10 µM (NCI-H460) | growth at 10 µM (MOLT-4) | growth at 10 µM (UACC-62) | growth at 10 µM (U-251) | growth at 10 µM (TK-10) | other results
1 | C=CCn1c(C)nc2ccc(Nc3nc(NCCO)nc4ccccc34)cc21 | 88.5% | 92.7% | 97.6% | 110% | 96.5% | 107% | 92.2% | 113% | 127% | 111% | 96.5% | 119% | 114% | 99% | 101% | 103% | 96.7% | 92.7% | 98.5% | 124% | growth at 10 µM (SK-MEL-28): 99.3%; growth at 10 µM (NCI-H226): 107%; growth at 10 µM (SW-620): 97.7%; growth at 10 µM (786-0): 95.7%; growth at 10 µM (SK-OV-3): 109%; growth at 10 µM (NCI-H322M): 100%; growth at 10 µM (ACHN): 104%; growth at 10 µM (A549): 99.9%; growth at 10 µM [1]: 107%; growth at 10 µM (IGROV-1): 90.1%; growth at 10 µM (OVCAR-8): 99%; growth at 10 µM (HT-29): 103%; growth at 10 µM (SNB-19): 93.9%; growth at 10 µM (SR): 104%; growth at 10 µM (Malme-3M): 111%; growth at 10 µM [2]: 92.6%; growth at 10 µM (RPMI-8226): 95.7%
2 | C=CCn1c(C)nc2cc(Nc3nc(Nc4ccc5nc(C)n(CC=C)c5c4)nc4ccccc34)ccc21 | 94.8% | 94.2% | 101% | 104% | 106% | 115% | 102% | 107% | 121% | 109% | 99.7% | 118% | 84% | 101% | 99.1% | 117% | 101% | 95.8% | 94.4% | 130% | growth at 10 µM (SK-MEL-28): 106%; growth at 10 µM (NCI-H226): 99.8%; growth at 10 µM (SW-620): 106%; growth at 10 µM (786-0): 113%; growth at 10 µM (SK-OV-3): 104%; growth at 10 µM (NCI-H322M): 109%; growth at 10 µM (ACHN): 104%; growth at 10 µM (A549): 96.3%; growth at 10 µM [1]: 107%; growth at 10 µM (IGROV-1): 102%; growth at 10 µM (OVCAR-8): 98.9%; growth at 10 µM (HT-29): 103%; growth at 10 µM (SNB-19): 100%; growth at 10 µM (SR): 106%; growth at 10 µM (Malme-3M): 94.5%; growth at 10 µM [2]: 89.3%; growth at 10 µM (RPMI-8226): 98.8%
